In US20250312469A1 (CANGET BIOTEKPHARMA, priority 2024, published 2025):
Values joined by “and” are separate entries in the source; they are usually repeats but may differ in a detail not shown here. Identical values can stand only once.

Experiments:
[1] = tested on: WP2-uvrA; test: Ames Bacterial Reverse Mutation Assay; conditions: for Background Lawn Code / Colony Counts Average / Colony Counts Replicate 1-3: WP2-uvrA
[2] = FL118 drug substance chemical stability (HPLC)
[3] = molecular target: T1, ABCG2/BCRP (Homo sapiens, UniProt Q9UNQ0); test: in vitro; conditions: for recovery at 120 min, 1 µM: Caco-2, pH 7.4, Recovery (%)
T1 sequence (Q9UNQ0 1-655): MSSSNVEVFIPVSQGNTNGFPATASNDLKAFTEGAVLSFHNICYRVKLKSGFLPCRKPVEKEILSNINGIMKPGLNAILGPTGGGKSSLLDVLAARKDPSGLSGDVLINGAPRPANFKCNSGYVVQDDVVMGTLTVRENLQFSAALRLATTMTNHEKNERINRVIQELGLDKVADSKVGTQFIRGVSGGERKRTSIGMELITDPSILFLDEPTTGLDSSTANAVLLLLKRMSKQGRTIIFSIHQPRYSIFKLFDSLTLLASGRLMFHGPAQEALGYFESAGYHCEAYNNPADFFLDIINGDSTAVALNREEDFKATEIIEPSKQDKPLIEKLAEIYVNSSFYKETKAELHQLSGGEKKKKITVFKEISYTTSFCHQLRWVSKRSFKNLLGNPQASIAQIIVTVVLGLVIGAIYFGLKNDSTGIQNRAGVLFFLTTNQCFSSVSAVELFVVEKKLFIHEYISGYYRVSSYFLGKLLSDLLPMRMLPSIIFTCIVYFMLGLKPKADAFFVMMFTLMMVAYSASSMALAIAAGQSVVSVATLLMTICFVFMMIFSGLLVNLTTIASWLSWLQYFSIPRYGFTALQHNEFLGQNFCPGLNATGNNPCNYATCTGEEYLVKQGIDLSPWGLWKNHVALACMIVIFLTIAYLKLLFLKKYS

[4] = molecular target: DDX5 (Homo sapiens, UniProt P17844); test: FL118 affinity column purification and mass spectrometry; assay type: binding; conditions: SW620 protein lysates
DDX5, sequence (P17844 whole entry): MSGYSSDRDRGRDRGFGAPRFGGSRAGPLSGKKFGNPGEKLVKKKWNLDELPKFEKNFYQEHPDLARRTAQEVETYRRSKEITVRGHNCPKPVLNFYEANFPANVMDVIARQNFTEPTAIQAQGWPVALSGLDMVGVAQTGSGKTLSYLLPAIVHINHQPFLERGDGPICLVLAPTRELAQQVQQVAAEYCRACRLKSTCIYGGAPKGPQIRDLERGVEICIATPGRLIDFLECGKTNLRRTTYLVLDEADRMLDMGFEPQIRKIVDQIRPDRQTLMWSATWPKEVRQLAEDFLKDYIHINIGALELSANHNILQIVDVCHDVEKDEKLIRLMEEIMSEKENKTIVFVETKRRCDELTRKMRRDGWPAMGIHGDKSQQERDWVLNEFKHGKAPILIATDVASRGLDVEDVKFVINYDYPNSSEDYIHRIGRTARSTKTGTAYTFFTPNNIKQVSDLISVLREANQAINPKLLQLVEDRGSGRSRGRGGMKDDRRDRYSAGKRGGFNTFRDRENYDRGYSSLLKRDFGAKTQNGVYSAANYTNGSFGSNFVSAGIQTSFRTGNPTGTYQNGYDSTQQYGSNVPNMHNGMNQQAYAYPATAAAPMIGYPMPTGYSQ
Protocol: The process includes many experimental steps as described below.
Affinity purification column setup: (i) transfer the control resin slurry and the FL118-coupled resin slurry into two columns, respectively; (ii) allow resin to settle and then open the bottom cap to allow the solution to flow out to drain all the reaction solution; (iii) washing the column with 2 ml CB, and then with 2 ml ultrapure water/DMSO solution (75:25). […] Then additional 3×4 ml tris washing buffer (0.1 M Tris, pH 8.0).
After extensive washing with washing buffer, the proteins binding on the column were eluted with 8M urea buffers.
After digestion, the tryptic products were extracted twice and dried; the dried peptides were then reconstituted in 10 μL of 2% (v/v) formic acid for analysis with Liquid Chromatography Tandem Mass Spectrometry (LC-ESI-MS/MS). LC-ESI-MS/MS analysis of peptides was performed using a nano-ACQUITY UPLC system (Waters Corporation, Milford, MA) coupled through a nano-spray ionization source to a Quadrupole-Time-of-Flight (Q-ToF) Premier mass spectrometer (Micromass, Waters Corporation). […] The criteria used to identify the proteins included ion scores equal to or greater than the threshold significant ion score ([…]), and similarity between the observed protein molecular mass from gel electrophoresis and the calculated molecular mass provided in the database. […]

[5] = tested on: 22Rv1 CRPC tumors; test: 22Rv1 CRPC tumor model

For CCC1(O)C(=O)OCc2c1cc1n(c2=O)Cc2cc3cc4c(cc3nc2-1)OCO4 (stereo not shown) [FL118], the bacterial strain mutation [1] was “does not induce”, the “mean revertant colonies over negative control” value ([1]; +/− S9) was “less than 2 fold” and the “Background Lawn Code” value ([1]; 0.010 μM +S9) was 1. The “Colony Counts Average” value ([1]; 0.010 μM +S9) was 40, the “Colony Counts Replicate 1-3” value ([1]; 0.010 μM +S9) was 38 and 47 and 34 and the “Background Lawn Code” value ([1]; 0.010 μM −S9) was 1. For the same compound, the “Colony Counts Average” value ([1]; 0.010 μM −S9) was 29, the “Colony Counts Replicate 1-3” value ([1]; 0.010 μM −S9) was 35 and 22 and 31 and the “Background Lawn Code” value ([1]; 0.10 μM +S9) was 1. For the same compound, the “Colony Counts Average” value ([1]; 0.10 μM +S9) was 47, the “Colony Counts Replicate 1-3” value ([1]; 0.10 μM +S9) was 48 and 38 and 54 and the “Background Lawn Code” value ([1]; 0.10 μM −S9) was 1. The “Colony Counts Average” value ([1]; 0.10 μM −S9) was 30, the “Colony Counts Replicate 1-3” value ([1]; 0.10 μM −S9) was 27 (2×) and 36 and the “Background Lawn Code” value ([1]; 1.0 μM +S9) was 1. For the same compound, the “Colony Counts Average” value ([1]; 1.0 μM +S9) was 39, the “Colony Counts Replicate 1-3” value ([1]; 1.0 μM +S9) was 35 and 38 and 43 and the “Background Lawn Code” value ([1]; 1.0 μM −S9) was 1. For the same compound, the “Colony Counts Average” value ([1]; 1.0 μM −S9) was 27, the “Colony Counts Replicate 1-3” value ([1]; 1.0 μM −S9) was 27 and 31 and 24 and the Hygroscope [2] was 0.07% and 0.20% and 0.38%. For the same compound, the “purity and impurity retest” value [2] was “still well passing the purity and impurity requirement”, the Papp A→B at 120 min, 1 μM ([3]; Caco-2, pH 7.4, Papp AVG, Caco-2, A-to-B, first FL118 entry (without Ko143)) was 10.7 ×10⁻⁶ cm/s and the Papp A→B at 120 min, 1 μM ([3]; Caco-2, pH 7.4, Papp R1, Caco-2, A-to-B, first FL118 entry (without Ko143)) was 11.2 ×10⁻⁶ cm/s. The Papp A→B at 120 min, 1 μM ([3]; Caco-2, pH 7.4, Papp R2, Caco-2, A-to-B, first FL118 entry (without Ko143)) was 10.3 ×10⁻⁶ cm/s, the recovery at 120 min, 1 µM ([3]; Caco-2, A-to-B, first FL118 entry (without Ko143)) was 57% and the recovery at 120 min, 1 µM ([3]; Caco-2, A-to-B, second FL118 entry (presumably with Ko143)) was 57%. For the same compound, the recovery at 120 min, 1 µM ([3]; Caco-2, B-to-A, second FL118 entry (presumably with Ko143)) was 66%, the “binding to DDX5 (affinity purification, MS)” value [4] was “physically binds” and the antitumor efficacy ([5]; 5 mg/kg oral, weekly×4) was “completely inhibited 22Rv1 tumor growth”. For the same compound, the “toxicity (clinical observations, body weight)” value ([5]; therapeutic dose) was “exhibited no toxicity”.
